Species on record: Rattus norvegicus
Assay: Open TG-GATES - Regimen: Single
Assay type: toxicity, organism-based, Sprague-Dawley
Parameters: regimen Single, gender Male, age 6 weeks
Conditions: in vivo, po, 100 mg/kg, route gavage; for APTT / Bas / Eos / Fbg / Hb / Ht / Lym / MCH / MCHC / MCV / Mono / Neu / PT / Plat / RBC / Ret / WBC: tissue Blood; for KIDNEY_L / KIDNEY_R / KIDNEY_TOTAL: tissue Kidney; for LIVER: tissue Liver; for A/G / ALP / ALT / AST / BUN / CRE / Ca / Cl / DBIL / GLC / IP / K / LDH / Na / PL / RALB / TBIL / TC / TG / TP / gamma-GTP: tissue Plasma

## O=C1CN(/N=C/c2ccc([N+](=O)[O-])o2)C(=O)N1 [NITROFURANTOIN]
6 h, dose level Low
  TERMINAL_BW: 199.6 g
  APTT: 16.4 s
  Eos: 1.2%
  Fbg: 215.8 mg/dL
  Hb: 13.4 g/dL
  Ht: 40.6%
  Lym: 74.6%
  MCH: 21.3 pg
  MCHC: 32.9%
  MCV: 64.5 fL
  Mono: 6.8%
  Neu: 17.8%
  PT: 11.7 s
  Plat: 121.5 x10_4/uL
  RBC: 629.8 x10_4/ul
  Ret: 7%
  WBC: 89.8 x10_2/uL
  KIDNEY_L: 0.9 g
  KIDNEY_R: 0.9 g
  KIDNEY_TOTAL: 1.8 g
  LIVER: 8.3 g
  A/G: 2.2
  ALP: 1217 IU/L
  AST: 66 IU/L
  BUN: 13.6 mg/dL
  Ca: 11 mg/dL
  Cl: 104.6 meq/L
  DBIL: 0.008 mg/dL
  GLC: 190.8 mg/dL
  IP: 8.7 mg/dL
  K: 4.6 meq/L
  LDH: 92.2 IU/L
  Na: 139.4 meq/L
  PL: 150.8 mg/dL
  RALB: 3.9 g/dL
  TBIL: 0.036 mg/dL
  TC: 100 mg/dL
  TG: 44 mg/dL
  TP: 5.7 g/dL
  gamma-GTP: 0.4 IU/L
6 h, dose level High
  APTT: 18.6 s
  Bas: 0%
  Eos: 1%
  Fbg: 216.6 mg/dL
  Hb: 13.3 g/dL
  Ht: 38%
  Lym: 73%
  MCH: 21.6 pg
  MCHC: 35%
  MCV: 61.7 fL
  Mono: 3.2%
  Neu: 21.4%
  PT: 12.9 s
  Plat: 122 x10_4/uL
  RBC: 615 x10_4/ul
  Ret: 7.7%
  WBC: 113.2 x10_2/uL
  KIDNEY_L: 1 g
  KIDNEY_R: 1 g
  KIDNEY_TOTAL: 2 g
  LIVER: 9.4 g
  A/G: 1.5
  ALP: 745.6 IU/L
  ALT: 32.2 IU/L
  AST: 64.6 IU/L
  BUN: 10.6 mg/dL
  CRE: 0.4 mg/dL
  Ca: 10.6 mg/dL
  Cl: 103.8 meq/L
  DBIL: 0.078 mg/dL
  GLC: 184.4 mg/dL
  IP: 8.9 mg/dL
  K: 4.2 meq/L
  LDH: 211 IU/L
  Na: 140.8 meq/L
  PL: 135.4 mg/dL
  RALB: 3.3 g/dL
  TBIL: 0.1 mg/dL
  TC: 78.8 mg/dL
  TG: 55 mg/dL
  TP: 5.5 g/dL
  gamma-GTP: 1.2 IU/L
9 h, dose level High
  TERMINAL_BW: 213.9 g
  APTT: 19.3 s
  Bas: 0%
  Eos: 1%
  Fbg: 245.8 mg/dL
  Hb: 13.1 g/dL
  Ht: 37.3%
  Lym: 75.4%
  MCH: 21.5 pg
  MCHC: 35.2%
  MCV: 61.1 fL
  Mono: 2.6%
  Neu: 19.8%
  PT: 12.9 s
  Plat: 126.6 x10_4/uL
  RBC: 609.4 x10_4/ul
  Ret: 8%
  WBC: 77.1 x10_2/uL
  KIDNEY_L: 1 g
  KIDNEY_R: 1 g
  KIDNEY_TOTAL: 2 g
  LIVER: 9.3 g
  A/G: 1.5
  ALP: 749 IU/L
  ALT: 33.2 IU/L
  AST: 62 IU/L
  BUN: 11 mg/dL
  CRE: 0.3 mg/dL
  Ca: 10.7 mg/dL
  Cl: 103.4 meq/L
  DBIL: 0.07 mg/dL
  GLC: 191.8 mg/dL
  IP: 9.6 mg/dL
  K: 4 meq/L
  LDH: 219.8 IU/L
  Na: 141.2 meq/L
  PL: 146.6 mg/dL
  RALB: 3.2 g/dL
  TBIL: 0.1 mg/dL
  TC: 82.2 mg/dL
  TG: 42.2 mg/dL
  TP: 5.5 g/dL
  gamma-GTP: 1.2 IU/L
9 h, dose level Low
  TERMINAL_BW: 211 g
  APTT: 19 s
  Eos: 1.2%
  Fbg: 229.2 mg/dL
  Hb: 12.7 g/dL
  Ht: 39%
  Lym: 65.6%
  MCH: 20.8 pg
  MCHC: 32.7%
  MCV: 63.6 fL
  Mono: 9.2%
  Neu: 24.4%
  PT: 12.3 s
  Plat: 124.9 x10_4/uL
  RBC: 612.8 x10_4/ul
  Ret: 6.7%
  WBC: 65.8 x10_2/uL
  KIDNEY_R: 0.9 g
  KIDNEY_TOTAL: 1.9 g
  LIVER: 9.4 g
  A/G: 2.1
  ALP: 1192 IU/L
  ALT: 30.2 IU/L
